Measurements from patent US8614200B2, “Compounds, compositions and methods for treating ocular conditions” (Chimerix, Inc., priority 2009, dated 2013).

Columns and labels:
Assay type in all cases: cell-based
HHV-6 = assay: in vitro antiviral activity against HHV-6; conditions: for EC50: HHV-6, in vitro
CMV = assay: in vitro antiviral activity against CMV; conditions: for EC50: Human betaherpesvirus 5, CMV, in vitro
EBV = assay: in vitro antiviral activity against EBV
VZV = assay: in vitro antiviral activity against VZV
HSV-1 = assay: in vitro antiviral activity against HSV-1; conditions: CMX001 versus cidofovir EC50, HSV-1

EC50 (HHV-6) [nM]	EC50 (CMV) [nM]	EC50 (EBV; human gammaherpesvirus 4, EBV, in vitro) [nM]	EC50 (VZV; Human alphaherpesvirus 3, VZV, in vitro) [nM]	Compound	Enhanced Activity (HHV-6; CMX001 versus cidofovir EC50, HHV-6)	Enhanced Activity (CMV; CMX001 versus cidofovir EC50, CMV)	Enhanced Activity (EBV; CMX001 versus cidofovir EC50, EBV)	Enhanced Activity (HSV-1)	Enhanced Activity (VZV; CMX001 versus cidofovir EC50, VZV)
5400	400	> 108000	500	Nc1ccn(C[C@@H](CO)OCP(=O)(O)O)c(=O)n1 [Cidofovir, cidofovir, reference compound]	–	–	–	–	–
7	1	–	–	CCCCCCCCCCCCCCCCOCCCOP(=O)(O)CO[C@H](CO)Cn1ccc(N)nc1=O [CMX001]	771	400	>2700	92	125
